Converted amounts (≈) assume the structure as drawn.
Assays:
[1] = Aqueous solubility of the compound at pH 7.4; type: physicochemical
[2] = target: T1, Heat shock protein HSP 90-beta (Homo sapiens, UniProt P08238)
[3] = target: T2, Heat shock protein 75 kDa, mitochondrial (Homo sapiens, UniProt Q12931)
T2 sequence (Q12931 whole entry): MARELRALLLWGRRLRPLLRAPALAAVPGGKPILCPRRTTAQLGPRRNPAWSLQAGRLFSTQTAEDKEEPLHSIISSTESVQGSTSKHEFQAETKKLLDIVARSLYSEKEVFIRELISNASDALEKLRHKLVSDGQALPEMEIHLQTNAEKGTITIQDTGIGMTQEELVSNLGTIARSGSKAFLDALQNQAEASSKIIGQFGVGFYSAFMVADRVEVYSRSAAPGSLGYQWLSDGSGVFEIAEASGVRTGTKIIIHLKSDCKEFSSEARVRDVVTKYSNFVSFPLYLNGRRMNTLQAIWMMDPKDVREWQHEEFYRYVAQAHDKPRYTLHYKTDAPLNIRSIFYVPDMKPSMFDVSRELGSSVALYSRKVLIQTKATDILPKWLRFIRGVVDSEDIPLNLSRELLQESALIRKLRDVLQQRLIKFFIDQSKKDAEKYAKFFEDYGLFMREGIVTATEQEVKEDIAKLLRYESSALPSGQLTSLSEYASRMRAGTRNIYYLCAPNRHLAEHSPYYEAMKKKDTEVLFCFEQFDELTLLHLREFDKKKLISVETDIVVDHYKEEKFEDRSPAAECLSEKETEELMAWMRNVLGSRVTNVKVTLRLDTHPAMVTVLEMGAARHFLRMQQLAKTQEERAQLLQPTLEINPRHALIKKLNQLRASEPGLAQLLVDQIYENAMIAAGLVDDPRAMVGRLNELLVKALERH

[4] = target: T1, Heat shock protein HSP 90-beta; remark: listed apart in the source
Endoplasmin = Endoplasmin (Homo sapiens, UniProt P14625)
in vivo [5] = conditions: Sprague-Dawley, rat, sc, 10 mg/kg
in vivo [6] = conditions: Sprague-Dawley, rat, plasma, sc, 10 mg/kg
in vivo [7] = conditions: Sprague-Dawley, rat, iv, 1 mg/kg
in vivo [8] = conditions: Sprague-Dawley, rat, iv, 1 mg/kg; remark: listed apart in the source
in vivo [9] = conditions: Sprague-Dawley, rat, plasma, iv, 1 mg/kg
in vivo [10] = conditions: Sprague-Dawley, rat, brain and plasma, sc, 10 mg/kg
in vivo [11] = conditions: Sprague-Dawley, rat, iv, 1 mg/kg; remark: listed apart in the source

T1 sequence (P08238 whole entry): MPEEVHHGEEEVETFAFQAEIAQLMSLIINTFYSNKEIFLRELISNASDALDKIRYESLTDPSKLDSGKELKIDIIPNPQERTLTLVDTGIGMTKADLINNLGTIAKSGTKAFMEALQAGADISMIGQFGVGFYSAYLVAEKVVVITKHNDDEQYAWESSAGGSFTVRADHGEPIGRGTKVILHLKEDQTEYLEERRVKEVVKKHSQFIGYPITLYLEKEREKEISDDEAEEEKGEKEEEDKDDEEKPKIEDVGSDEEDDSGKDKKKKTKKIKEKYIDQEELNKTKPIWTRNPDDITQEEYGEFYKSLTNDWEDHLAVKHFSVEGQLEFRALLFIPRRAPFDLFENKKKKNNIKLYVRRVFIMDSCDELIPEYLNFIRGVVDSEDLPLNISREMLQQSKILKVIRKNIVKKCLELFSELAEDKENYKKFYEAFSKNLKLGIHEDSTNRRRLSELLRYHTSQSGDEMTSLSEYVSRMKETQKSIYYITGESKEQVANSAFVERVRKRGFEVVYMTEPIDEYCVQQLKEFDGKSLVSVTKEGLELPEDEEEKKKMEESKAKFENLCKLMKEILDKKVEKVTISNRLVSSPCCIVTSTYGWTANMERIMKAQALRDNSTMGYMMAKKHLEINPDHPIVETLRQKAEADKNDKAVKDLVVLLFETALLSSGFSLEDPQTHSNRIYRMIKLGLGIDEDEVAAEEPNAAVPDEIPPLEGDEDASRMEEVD
Chain of Endoplasmin (P14625 whole entry): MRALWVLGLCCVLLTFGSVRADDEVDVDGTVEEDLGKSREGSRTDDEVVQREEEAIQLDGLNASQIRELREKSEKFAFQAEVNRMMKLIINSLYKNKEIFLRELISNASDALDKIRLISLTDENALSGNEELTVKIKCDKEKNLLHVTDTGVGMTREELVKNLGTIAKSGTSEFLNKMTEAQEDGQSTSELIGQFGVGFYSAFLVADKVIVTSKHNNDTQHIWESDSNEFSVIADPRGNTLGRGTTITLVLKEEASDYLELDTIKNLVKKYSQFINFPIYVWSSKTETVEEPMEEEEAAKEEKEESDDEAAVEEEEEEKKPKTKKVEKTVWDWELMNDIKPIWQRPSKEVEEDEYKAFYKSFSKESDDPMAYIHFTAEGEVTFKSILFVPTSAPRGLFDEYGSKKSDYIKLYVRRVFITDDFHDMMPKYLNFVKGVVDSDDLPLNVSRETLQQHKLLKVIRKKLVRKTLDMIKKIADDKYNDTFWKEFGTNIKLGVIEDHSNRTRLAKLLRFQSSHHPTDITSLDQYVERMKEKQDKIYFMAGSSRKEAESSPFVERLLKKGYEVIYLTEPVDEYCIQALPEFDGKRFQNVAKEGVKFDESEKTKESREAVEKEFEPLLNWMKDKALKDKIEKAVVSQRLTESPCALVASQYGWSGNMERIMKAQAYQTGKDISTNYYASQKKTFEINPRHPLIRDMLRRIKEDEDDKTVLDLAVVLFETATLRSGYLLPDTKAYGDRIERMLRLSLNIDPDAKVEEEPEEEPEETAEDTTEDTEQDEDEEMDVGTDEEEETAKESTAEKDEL

| IC50 [2] [µM] | Ki [3] [µM] | Ki [4] [µM] | Ki (Endoplasmin) [µM] | Structure (SMILES) | also measured |
| --- | --- | --- | --- | --- | --- |
| 0.019 | > 10 | 0.003 | 2.4 | Cc1cn(-c2cc3c(c(C4CCOCC4)c2)C(=O)NCC3)c2c1C(=O)CC(C)(C)C2 |  |
| 1 | > 10 | 0.056 | > 10 | CCCCc1cc(-n2cc(C)c3c2CC(C)(C)CC3=O)cc2c1C(=O)NCC2 |  |
| 0.036 | > 10 | 0.005 | > 10 | Cc1cn(-c2cc3c(c(C4CCCCC4)c2)C(=O)NCC3)c2c1C(=O)CC(C)(C)C2 |  |
| 0.195 | > 10 | 0.039 | > 10 | Cc1cn(-c2cc3c(c(C4CCC4)c2)C(=O)NCC3)c2c1C(=O)CC(C)(C)C2 |  |
|  | > 10 |  | > 10 | Cc1cn(-c2cc3c(c(CC(C)C)c2)C(=O)NCC3)c2c1C(=O)CC(C)(C)C2 | half-life (in vivo [5]): 11.6 h; AUC (in vivo [6]): 3580 ng·h/mL; Vd (in vivo [7]): 4.08 L/kg; clearance (in vivo [8]): 25.7 mL/min/kg; AUC (in vivo [9]): 640 ng·h/mL; Kp at 2 h (in vivo [10]): 0.5; half-life (in vivo [11]): 2.2 h |
| 1.7 | > 10 | 0.14 | > 10 | Cc1cn(-c2cc3c(c(C(C)(C)C)c2)C(=O)NCC3)c2c1C(=O)CC(C)(C)C2 |  |
| 0.23 | > 10 | 0.015 | > 10 | Cc1cn(-c2cc3c(c(-c4ccccc4)c2)C(=O)NCC3)c2c1C(=O)CC(C)(C)C2 |  |

The remaining lines, values behind:

| Structure (SMILES) | IC50 [2] [µM] | Ki [3] [µM] | Ki [4] [µM] | Ki (Endoplasmin) [µM] | also measured |
| --- | --- | --- | --- | --- | --- |
| CN1CCc2c3c(n(-c4ccc(C(N)=O)c(N[C@H]5CCOC5)c4)c2C1)CC(C)(C)CC3=O |  |  |  |  | solubility [1]: > 200 µM |
| CC1(C)CC(=O)c2c3c(n(-c4ccc(C(N)=O)c(N[C@H]5CCOC5)c4)c2C1)CCCC3 | 0.53 |  | 0.04 |  | solubility [1]: 27 µM (≈ 11.4 µg/mL) |
| COc1ccc(-c2cc(-n3cc(C)c4c3CC(C)(C)CC4=O)cc3c2C(=O)NCC3)cc1 | 0.28 | > 10 | 0.04 | > 10 |  |
| Cc1cn(-c2cc3c(c(Cc4ccccc4)c2)C(=O)NCC3)c2c1C(=O)CC(C)(C)C2 | 0.48 | > 10 | 0.12 | > 10 |  |
| Cc1cn(-c2cc3c(c(-c4ccc(F)cc4)c2)C(=O)NCC3)c2c1C(=O)CC(C)(C)C2 | 0.08 | > 10 | 0.01 | > 10 |  |
| CN1CCc2c3c(n(-c4ccc5c(c4)CNC5=O)c2C1)CC(C)(C)CC3=O | > 10 | > 10 | > 10 | > 10 |  |
| CC1(C)CC(=O)c2c(n(-c3ccc(C(N)=O)cc3)c3cnccc23)C1 |  | > 10 | > 10 | > 10 |  |
| CN1CCc2c3c(n(-c4ccc5c(c4)CCCNC5=O)c2C1)CC(C)(C)CC3=O | > 10 | > 10 | > 10 | > 10 |  |
| CC1(C)CC(=O)c2c(n(-c3ccc(C(N)=O)cc3)c3cccnc23)C1 |  | > 10 | > 10 | > 10 |  |
| Cc1cn(-c2cc3c(c(-c4cccc(F)c4)c2)C(=O)NCC3)c2c1C(=O)CC(C)(C)C2 | 0.081 | > 10 | 0.02 | > 10 |  |

Reference: ChEMBL document CHEMBL3232825 (J Med Chem, 2014)
